In patent US20230044943A1, “Pharmaceutical Combinations” (ARRAY BIOPHARMA INC., priority 2016, published 2023):

Assays:
[1] = Stability of test compound dosing formulation; format: physicochemical
Method: LGX818 was dissolved in 0.5% CMC/0.5% Tween 80.
MEK162 was dissolved in 1% CMC/0.5% Tween 80.

[2] = tested on: HT-29 BRAF mutant colorectal cancer (CRC) xenograft tumor model; assay: Anti-tumor efficacy in HT-29 colon cancer xenograft model (study TRP-377-HT29-XEF); format: in vivo, female nude mice (Mus musculus); settings: HT-29 xenograft, day 43 after 21 days of treatment; LGX818 20 mg/kg po qd, MEK162 3.5 mg/kg po bid, cetuximab 20 mg/kg ip 2qw
Method: (§1) Animals were weight at dosing day(s) and dose was body weight adjusted, dosing volume was 10 mL/kg. Tumor dimensions and body weights were collected at the time of randomization and twice weekly thereafter for the study duration. The following data were provided after each day of data collection: incidence of mortality, individual and group average body weights, and individual and group average tumor volume.
All data were expressed as mean±standard error of the mean (SEM). […] For all statistical evaluations, the level of significance was set at p<0.05. Significance compared to the vehicle control group is reported unless otherwise stated.

[3] = Tolerability (body weight change, adverse events) in study TRP-377-HT29-XEF; format: in vivo; settings: mean ± SEM, day of maximum change in parentheses; HT-29 tumor-bearing nude mice; LGX818 20 mg/kg po qd, MEK162 3.5 mg/kg po bid, cetuximab 20 mg/kg ip 2qw
Method: Animal wellbeing and behavior, including grooming and ambulation were monitored twice daily. General health of mice was monitored and mortality recorded daily. Any moribund animals were sacrificed.
as §1
The % change in body was calculated as (BWcurrent−BWinitial)/(BWinitial)×100. Data is presented as percent body weight change from the day of treatment initiation.

SMILES | Stability of dosing formulation ([1]; dissolved in 0.5% CMC/0.5% Tween 80, room temperature) | T/C (percent tumor volume change treated over control group) [2] [%] | % Maximum BW change (day) [3] | Stability of dosing formulation ([1]; dissolved in 1% CMC/0.5% Tween 80, room temperature)
COC(=O)N[C@@H](C)CNc1nccc(-c2cn(C(C)C)nc2-c2cc(Cl)cc(NS(C)(=O)=O)c2F)n1 [LGX818, methyl N-[(2S)-1-({4-[3-(5-chloro-2-fluoro-3-methanesulfonamidophenyl)-1-(propan-2-yl)-1H-pyrazol-4-yl]pyrimidin-2-yl}amino)propan-2-yl]carbamate] | stable for at least one week | 42 | −1.6 ± 0.98 (day 29) % | 
Cn1cnc2c(F)c(Nc3ccc(Br)cc3F)c(C(=O)NOCCO)cc21 [MEK162, 6-(4-bromo-2-fluorophenylamino)-7-fluoro-3-methyl-3H-benzoimidazole-5-carboxylic acid (2-hydroxyethoxy)-amide] |  | 28 | −4.1 ± 1.02 (day 29) % | stable for at least one week
